Earlier results in paper PMC6377828 (Clinical cancer research : an official journal of the …, 2018).
Read-outs that look alike come from different tables or passages of the source.

System: αvβ6-expressing xenograft tumor
Settings: murine xenograft models

[^18F]FBA-A20FMDV2
tumor uptake (1 h): 0.66 % ID/g | tumor uptake (4 h): 0.06 % ID/g
